# From patent publication EP4653523A1, “CULTURE MEDIUM, PRODUCTION METHOD, AND CELL PREPARATION” (National University Corporation Kumamoto University, priority 2023, dated 2024)
# What was measured:
# EPCR High cell group [1] = assay: Ex vivo culture of mouse EPCR High cell group for 4 days, flow cytometry and cell count; assay type: cell-based; details: cultured for 4 days, vs control
# From the text: The expression of c-kit and EPCR in a hematopoietic stem cell fraction (lineage: CD150+, CD48-) isolated from a mouse by using flow cytometry was checked. Among the c-kit-positive and EPCR-positive cells, a cell group of the top 30% of the EPCR-positive cells was defined as an EPCR High cell group, and a cell group of the bottom 30% of the EPCR-positive cells was defined as an EPCR Low cell group (see FIG. 1). Each cell group was transplanted into a recipient mouse, and 20 weeks later, the proportion of cells derived from the transplanted stem cells was examined in the peripheral blood (PB). In addition, at the same time, the proportion of cells derived from the transplanted stem cells was examined in the hematopoietic stem cell fraction ([…]) in the bone marrow after 20 weeks of the transplantation. The experiment was carried out twice. […] The culture medium used for the ex vivo culture of the untreated hematopoietic stem cells isolated from the mouse is a culture medium obtained by adding, to the RPMI medium, L-Alanin (4.45mg/L), Zinc Sulfate Heptahydrate (0.432mg/L), Cupric Sulfate Pentahydrate (0.0013mg/L), Ferric Nitrate Nonahydrate (0.05mg/L), Ferrous Sulfate Heptahydrate (0.417mg/L), Linoleic acid (0.042mg/L), Hypoxanthine (2.1mg/L), Putrescine + 2HCL (0.081mg/L), Thioctic Acid (0.105mg/L), Thymidine (0.365mg/L), Sodium Pyruvate (55mg/L), HEPES (1mM), a penicillin-streptomycin mixed solution (Nacalai Tesque, Inc.: 26253-84) (1/100 capacity), Insulin-Transferrin-Selenium-Ethanolamine (Thermo Fisher Scientific, Inc.: 51500056) (1/100 capacity), and AlbuMAXtm I Lipid-Rich BSA (Thermo Fisher Scientific, Inc.: 11020021) (2%). As shown in FIG. 5(A), α-ketoglutaric acid (αKG), which is an intermediate metabolite of the TCA cycle, is also produced from glutamic acid or the like, and then it is supplied to the TCA cycle. In addition, in the production of α-ketoglutaric acid from glutamic acid, two pathways of a transaminase pathway and a glutamate dehydrogenase pathway are used (see FIG. 5(B)). Therefore, the proportion of EPCR High in hematopoietic stem cells was determined in a case where the EPCR High cell group was cultured for 4 days by adding each of an inhibitor […] (30 μM) of glutamate dehydrogenase and an inhibitor aminooxyacetic acid (AOA) (50 μM) of transaminase to the culture medium, and in a case where the content of […] in the culture medium, which is the source of glutamic acid synthesis, was set to 1/100 (0.02 mM) in FIG. 5(A) (Low Neu.). […] As a result, in a case of culturing in the presence of […], the number of cells having the EPCR High phenotype is increased by about 2 times in the culture for 4 days, as compared with the culture under the normal culture conditions. […]
# recipient mouse = assay: Transplantation of cultured cell groups into recipient mouse, proportion of donor-derived cells; assay type: in vivo
# Experimental: Mouse EPCR High cells were cultured for 4 days under the normal culture conditions or in the presence of R162, and 50 cells of each of an EPCR High cell group (Control) generated under the normal culture conditions, an EPCR Low cell group (Control), and an EPCR High cell group (R162) amplified in the presence of R162 were aliquoted and then transplanted into a recipient mouse. Then, after 4 weeks and 12 weeks, the proportion of cells derived from donor cells in the peripheral blood was examined.
# Further, the EPCR High cells were cultured for 4 days under the normal culture conditions and cultured for 4 days in the presence of R162, and the EPCR High cell group generated under the normal culture conditions, the EPCR Low cell group, and the EPCR High cell group (R162) amplified in the presence of R162 were each transplanted into a recipient mouse. Then, 20 weeks later, the proportion of cells derived from donor cells was examined in the peripheral blood and the hematopoietic stem cell fraction in the bone marrow (L-ESLAM (BM)).
# EPCR High cell group [2] = assay: Gene expression pattern analysis by RNA-sequence with principal component analysis; assay type: cell-based, mouse; details: 4d gEPCR-High (R162) compared with 4d gEPCR-High, cultured for 4 days
# EPCR High cell group [3] = assay: Chromatin status by open chromatin region analysis (ATAC-sequence) with principal component analysis; assay type: cell-based, mouse; details: 4d gEPCR-High (R162) compared with 4d gEPCR-High, cultured for 4 days
# Experimental: In the same manner, the chromatin status of each cell group was analyzed by open chromatin region analysis (ATAC-sequence).
# [4] = test system: Human CD34^+ bone marrow cells; assay: Culture of human CD34+ bone marrow cells for 7 days, total cell count and flow cytometry; assay type: cell-based
# Experimental: Human CD34^+ bone marrow cells (10,000 cells) were cultured for 7 days under normal culture conditions or in the presence of a glutamate dehydrogenase inhibitor R162 (30 µM), and then the total number of cells was analyzed. Then, the proportion of hematopoietic stem cells (lineage: CD34+ CD38- CD90+ cells) was analyzed using a flow cytometer, and from the results, the number of stem cells was estimated. FIG. 13 and FIG. 14 show the results. As shown in FIG. 14(A), it has been confirmed that the total number of cells is not changed by the presence of R162 as compared with the control, whereas as shown in FIG. 14(B), the ratio of stem cells after culturing is increased by the presence of R162.
# The culture medium used for the ex vivo culture of human CD34+ bone marrow cells is a culture medium obtained by adding, to the RPMI medium, L-Alanin (4.45mg/L), Zinc Sulfate Heptahydrate (0.432mg/L), Cupric Sulfate Pentahydrate (0.0013mg/L), Ferric Nitrate Nonahydrate (0.05mg/L), Ferrous Sulfate Heptahydrate (0.417mg/L), Linoleic acid (0.042mg/L), Hypoxanthine (2.1mg/L), Putrescine + 2HCL (0.081mg/L), Thioctic Acid (0.105mg/L), Thymidine (0.365mg/L), Sodium Pyruvate (55mg/L), HEPES (1mM), a penicillin-streptomycin mixed solution (Nacalai Tesque, Inc.: 26253-84) (1/100 capacity), Insulin-Transferrin-Selenium-Ethanolamine (Thermo Fisher Scientific, Inc.: 51500056) (1/100 capacity), and AlbuMAXtm I Lipid-Rich BSA (Thermo Fisher Scientific, Inc.: 11020021) (2%).
compound,measurement,setting,value
"NOCC(=O)O [AOA, aminooxyacetic acid]",number of cells,EPCR High cell group [1]; AOA 50 µM,significantly reduced as compared with the control
"O=C(O[C@@H]1Cc2c(O)cc(O)cc2O[C@@H]1c1cc(O)c(O)c(O)c1)c1cc(O)c(O)c(O)c1 [EGCG, epigallo catechin-3-gallate]",proportion of EPCR-positive cells (phenotype of EPCR High),EPCR High cell group [1]; EGCG 50 µM in culture medium,phenotype of EPCR High is maintained
"C=CCc1ccc2c(c1O)C(=O)c1ccccc1C2=O [R162, 2-allyl-1-hydroxy-9,10-anthraquinone]",proportion of EPCR High in hematopoietic stem cells,EPCR High cell group [1]; R162 30 µM in culture medium,phenotype of EPCR High is maintained
same,number of cells,EPCR High cell group [1]; R162 30 µM,about the same level as that of the control
same,proportion of cells derived from donor cells in the peripheral blood,"recipient mouse; 50 cells of EPCR High cell group amplified 4 days in the presence of R162, transplanted, after 4 weeks and 12 weeks","high ability to reconstruct hematopoietic tissue, which is equivalent to the EPCR High cell group (Control)"
same,proportion of cells derived from donor cells in the peripheral blood and the hematopoietic stem cell fraction in the bone marrow (L-ESLAM (BM)),"recipient mouse; EPCR High cell group amplified 4 days in the presence of R162, transplanted, 20 weeks later",high ability to maintain the reconstructed hematopoiesis for a longer period of time
same,gene expression pattern,EPCR High cell group [2],extremely similar gene expression patterns
same,chromatin status (chromatin accessibility of cis-element regions),EPCR High cell group [3],extremely similar gene expression patterns even in the chromatin status
same,total number of cells,"[4]; R162 30 µM, 10,000 cells cultured for 7 days, vs control",not changed
same,number of stem cells,"[4]; R162 30 µM, cultured for 7 days, estimated from total cell number and proportion, vs normal culture conditions",the number of stem cells is increased
same,ratio of stem cells after culturing (CD34+ CD38- CD90+ cells),"[4]; R162 30 µM, cultured for 7 days, vs control",increased
